Measurements taken from patent publication US8658131B2, “Compounds comprising 4-benzoylpiperidine as a sigma-1-selective ligand” (Washington University, priority 2010, dated 2014).
Where a name gives a salt, the structure may show the parent alone. Read-outs that look alike come from different tables or passages of the source. Values belong to the compound of their own block, whether it stands above or below them.

How the values were obtained:
σ2 receptor [1] = biological target: T1, σ2 receptor (Rattus norvegicus, UniProt Q5U3Y7); assay: σ2 receptor binding assay, [3H]DTG, rat liver membrane homogenates; set-up: conducted using rat liver membrane homogenates; from tissue; host or cells: rat liver membrane homogenates
T1 sequence (Q5U3Y7 1-176): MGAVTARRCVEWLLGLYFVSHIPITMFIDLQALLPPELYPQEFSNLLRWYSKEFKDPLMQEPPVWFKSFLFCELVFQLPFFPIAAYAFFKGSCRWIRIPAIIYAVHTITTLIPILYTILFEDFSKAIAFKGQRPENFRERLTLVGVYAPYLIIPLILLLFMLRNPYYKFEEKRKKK
Protocol: The compounds were dissolved in DMF, DMSO, or ethanol, and then diluted in 50 mM Tris-HCl buffer containing 150 mM NaCl and 100 mM EDTA at pH 7.4, prior to performing the σ1 and σ2 receptor binding assays.
The incubation time was 2 h at room temperature. Nonspecific binding was determined from samples that contained 10 μM of cold haloperidol. All other procedures were identical to those described for the σ1 receptor binding assay above.
Ki values were calculated using the method of Cheng and Prusoff and are presented as the mean (±1 SEM).

σ1 receptor = biological target: T2, σ1 receptor (Cavia porcellus, UniProt Q60492); assay: σ1 receptor binding assay, (+)-[3H]pentazocine, guinea pig brain membranes; details: Table 4, Ki values of VAChT specific compounds; tissue not given; read-out: Sigma-1 σ1
T2 construct: using guinea pig brain membrane homogenates; from tissue; host or cells: guinea pig brain membrane homogenates
T2 sequence (Q60492 whole entry): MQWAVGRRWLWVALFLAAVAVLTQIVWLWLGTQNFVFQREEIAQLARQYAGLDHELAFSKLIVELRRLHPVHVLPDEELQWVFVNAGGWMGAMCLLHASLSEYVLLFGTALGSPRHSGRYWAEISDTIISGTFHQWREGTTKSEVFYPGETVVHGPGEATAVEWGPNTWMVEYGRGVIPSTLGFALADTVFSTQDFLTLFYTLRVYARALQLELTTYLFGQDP

[2] = biological target: T3, human vesicular acetylcholine transporter (VAChT) (Homo sapiens, UniProt Q16572); assay: VAChT binding assay, (−)-[3H]vesamicol, human VAChT expressed in PC12 cells
T3 construct: expressed in transfected cells; host or cells: PC12 A123.7 cells (crude extract / homogenized, partially clarified cells)
T3 sequence (Q16572 1-532): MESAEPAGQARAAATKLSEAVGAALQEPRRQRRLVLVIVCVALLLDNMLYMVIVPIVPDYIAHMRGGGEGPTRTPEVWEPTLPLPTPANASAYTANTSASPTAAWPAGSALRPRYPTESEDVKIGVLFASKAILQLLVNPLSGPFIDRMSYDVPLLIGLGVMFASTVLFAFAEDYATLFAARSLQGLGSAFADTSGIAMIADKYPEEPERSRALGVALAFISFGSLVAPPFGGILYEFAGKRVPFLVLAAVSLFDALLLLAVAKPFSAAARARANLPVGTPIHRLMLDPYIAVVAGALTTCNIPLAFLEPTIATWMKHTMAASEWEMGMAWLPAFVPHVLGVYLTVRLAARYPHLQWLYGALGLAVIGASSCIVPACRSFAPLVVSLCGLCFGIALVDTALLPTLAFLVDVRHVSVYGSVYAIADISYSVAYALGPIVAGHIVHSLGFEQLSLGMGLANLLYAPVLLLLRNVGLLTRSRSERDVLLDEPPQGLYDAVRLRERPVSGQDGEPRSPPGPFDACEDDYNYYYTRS
Protocol: In vitro binding assays of these novel compounds to VAChT were conducted with human vesicular acetylcholine transporter (VAChT) permanently expressed in PC12^A123.7 cells at about 50 pmol/mg of crude extract. […] Duplicate data were averaged and fitted by regression with a rectangular hyperbola to estimate the Ki value of the novel compound. All compounds were independently assayed at least two times.

VAChT = biological target: T4, VAChT (Tetronarce californica, UniProt P81721); assay: biochemical; type: binding; details: for VAChT/σ selectivity: in words; for σ1/VAChT: selectivity index Ki (σ1)/Ki (VAChT); for σ2/VAChT: selectivity index Ki (σ2)/Ki (VAChT)
T4 construct: using highly purified Torpedo synaptic vesicles; from tissue
T4 sequence (P81721 1-515): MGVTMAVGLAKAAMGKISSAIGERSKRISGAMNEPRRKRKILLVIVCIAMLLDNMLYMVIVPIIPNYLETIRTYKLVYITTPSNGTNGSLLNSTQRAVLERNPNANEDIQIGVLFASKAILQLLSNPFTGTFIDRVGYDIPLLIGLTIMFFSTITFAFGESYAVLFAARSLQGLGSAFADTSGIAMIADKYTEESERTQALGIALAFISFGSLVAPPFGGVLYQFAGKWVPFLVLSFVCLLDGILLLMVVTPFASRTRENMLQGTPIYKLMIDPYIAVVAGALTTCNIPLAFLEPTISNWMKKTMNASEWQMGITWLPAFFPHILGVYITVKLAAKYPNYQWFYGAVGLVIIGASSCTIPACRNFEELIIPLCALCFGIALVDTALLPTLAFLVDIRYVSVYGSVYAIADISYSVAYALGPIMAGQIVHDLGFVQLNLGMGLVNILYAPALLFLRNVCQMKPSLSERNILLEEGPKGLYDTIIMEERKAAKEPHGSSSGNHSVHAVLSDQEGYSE

σ2 receptor [3] = biological target: T1, σ2 receptor; assay: σ2 binding of Table 5 compounds; set-up: species or system guinea pig; details: read-out: σ2 Ki (nM) ± SEM; Table 6
Protocol: Compounds were tested for VAChT binding using highly purified Torpedo synaptic vesicles. The σ1 and σ2 binding affinities were tested in rat brain and in guinea pig membranes, respectively. Structures and Equilibrium binding constants (Ki) are reported in Table 5 and Table 6, respectively. As in previous studies, we define ligand selectivity in terms of a selectivity index which is calculated as Ki (σ1 or σ2)/Ki (VAChT).
Consequently, we also screened the target compounds for sigma binding to identify selective VAChT ligands from this new structural class of agents.

[4] = Table 4, Ki values of VAChT specific compounds, tissue not given, read-out: Sigma-2 σ1
[5] = Table 4, Ki values of VAChT specific compounds, source not given, read-out: VAChT

Ki (σ2 receptor [1]; [4]): > 10 µM
SMILES: COc1ccc(C(=O)N2CCC(O)C(N3CCC(C(=O)c4ccc(F)cc4)CC3)C2)cc1 (stereo not drawn) [WW-1-35]

Ki (σ1 receptor): 2.23 ± 0.168 µM
Ki [2, 5]: 0.107 ± 0.0111 µM
Ki (σ2 receptor [1]; [4]): 17.1 ± 3.86 µM
SMILES: COc1ccc(C(=O)C2CCN(C3CN(Cc4cccnc4)CCC3O)CC2)cc1 (stereo not drawn) [WW-III-25]

Ki ([2]; expressed human VAChT, mean ± SEM, read-out: VAChT (Ki)): 0.0355 ± 0.0111 µM
Ki (σ2 receptor [1]; homogenates of rat liver, mean ± SEM, read-out: σ2 (Ki)): 8.54 ± 1.9 µM
SMILES: COc1ccc(C(=O)C2CCN(C3CN(Cc4ccccc4)CCC3O)CC2)cc1 (stereo not drawn) [Compound 16g, (1′-Benzyl-4′-hydroxy-[1,3′-bipiperidin]-4-yl)(4-methoxyphenyl)methanone]

Ki (σ2 receptor [1]; [4]): 16.4 ± 1.48 µM
SMILES: Cc1ccc(C(=O)N2CCC(O)C(N3CCC(C(=O)c4ccc(F)cc4)CC3)C2)s1 (stereo not drawn) [WW-III-41]

Ki (σ2 receptor [1]; [4]): 24.3 ± 1.91 µM
SMILES: COc1ccc(C(=O)C2CCN(C3CN(C(=O)c4cccnc4)CCC3O)CC2)cc1 (stereo not drawn) [WW-III-13]

SMILES: O=C(c1cncc(F)c1)C1CCN(C2Cc3ccccc3CC2O)CC1 (stereo not drawn) [TZ-4-1-96, (5-Fluoropyridin-3-yl)(1-(3-hydroxy-1,2,3,4-tetrahydronaphthalen-2-yl)piperidin-4-yl)methanone oxalate]
Ki (VAChT): 0.0101 ± 0.00154 µM
VAChT/σ selectivity (VAChT): moderate or high
σ1/VAChT (VAChT): 70.2
σ2/VAChT (VAChT): 167.3
Ki (σ2 receptor [3]): 1690 ± 56 nM

Ki (σ2 receptor [1]; [4]): 6.38 ± 1 µM
SMILES: COc1ccc(C(=O)C2CCN(C3CN(C(=O)c4cccs4)CCC3O)CC2)cc1 (stereo not drawn) [WW-III-21]

Ki (σ1 receptor): 3.55 ± 0.438 µM
Ki [2, 5]: 0.0209 ± 0.00498 µM
Ki (σ2 receptor [1]; [4]): 6.89 ± 0.546 µM
SMILES: Nc1cccc2c1CC(N1CCC(C(=O)c3ccc(F)cc3)CC1)C(O)C2 (single isomer, unassigned) [WW-1-88-2]

SMILES: Cn1ccc(C(=O)C2CCN(C3Cc4ccccc4CC3O)CC2)c1 (stereo not drawn) [TZ-4-1-114, (1-(3-Hydroxy-1,2,3,4-tetrahydronaphthalen-2-yl)piperidin-4-yl)(1-methyl-1H-pyrrol-3-yl)methanone oxalate]
Ki (σ2 receptor [3]): 7710 ± 1060 nM

Ki [2, 5]: 8.7 ± 1.62 µM
Ki (σ2 receptor [1]; [4]): 1.38 ± 0.135 µM
SMILES: O=C(c1ccc(F)cc1)C1CCN(C2CN(C(=O)c3ccc(F)cc3)CCC2O)CC1 (stereo not drawn) [WW-1-123]

Ki (σ1 receptor): 0.208 ± 0.053 µM
Ki [2, 5]: 0.0355 ± 0.0111 µM
Ki (σ2 receptor [1]; [4]): 8.54 ± 1.9 µM
SMILES: COc1ccc(C(=O)C2CCN(C3CN(Cc4ccccc4)CCC3O)CC2)cc1 (stereo not drawn) [WW-1-109]

Ki (σ2 receptor [1]; [4]): 24.4 ± 3.63 µM
SMILES: COc1ccc(C(=O)C2CCN(C3CN(C(=O)c4ccc(C)s4)CCC3O)CC2)cc1 (stereo not drawn) [WW-III-17]

Ki (σ2 receptor [1]; [4]): 4.22 ± 0.205 µM
SMILES: Cc1ccsc1C(=O)N1CCC(O)C(N2CCC(C(=O)c3ccc(F)cc3)CC2)C1 (stereo not drawn) [WW-III-39]

Ki (σ2 receptor [1]; [4]): 4.85 ± 0.649 µM
SMILES: COc1ccc(C(=O)C2CCN(C3CN(C(=O)c4ccccc4)CCC3O)CC2)cc1 (stereo not drawn) [WW-1-67]

SMILES: COc1cccnc1C(=O)C1CCN(C2Cc3ccccc3CC2O)CC1 (stereo not drawn) [TZ-4-1-92, (1-(3-Hydroxy-1,2,3,4-tetrahydronaphthalen-2-yl)piperidin-4-yl)(3-methoxypyridin-2-yl)methanone oxalate]
Ki (VAChT): 0.121 ± 0.0292 µM
VAChT/σ selectivity (VAChT): poor selectivity
σ1/VAChT (VAChT): 173.3
σ2/VAChT (VAChT): 12.9
Ki (σ2 receptor [3]): 1560 ± 63 nM

SMILES: Cn1ccc(C(=O)C2CCN(C3Cc4ccccc4CC3O)CC2)cc1=O (stereo not drawn) [TZ-4-1-150, 4-(1-(3-Hydroxy-1,2,3,4-tetrahydronaphthalen-2-yl)piperidine-4-carbonyl)-1-methylpyridin-2(1H)-one oxalate]
Ki (VAChT): 0.0662 ± 0.0102 µM
VAChT/σ selectivity (VAChT): moderate or high
σ1/VAChT (VAChT): 50.5
σ2/VAChT (VAChT): 32.1
Ki (σ2 receptor [3]): 2120 ± 251 nM
